Data published in patent US20080312336A1, “Preventive and/or Therapeutic Agent for Diabetic Vascular Disorder and Respiratory Disorder” (priority 2005, published 2008).

Legend:
[1] = test system: tracheal smooth muscles from the STZ-induced diabetic rat model; test: Carbachol-induced contraction of isolated tracheal smooth muscle from STZ-induced diabetic rats after four weeks of dosing; assay type: in vivo, SD rats; conditions: for effective dose for inducing 50% muscle contraction (ED50): ED50 of carbachol; for effective dose for inducing 50% muscle contraction (ED50) / maximum muscle contractile force (Emax): mean±SD, n=6; for maximum muscle contractile force (Emax): carbachol
Method: Eight-week-old male SD rats were divided into four groups, three of which were intraperitoneally administered with 50 mg/kg of streptozotocin (hereafter, also referred to as STZ) to induce diabetes. Of this diabetic model, two groups were used as the test substance-administered groups, and were intraperitoneally administered with 2 mg/kg or 8 mg/kg of the compound, 3-(15-hydroxypentadecyl)-2,4,4-trimethyl-2-cyclohexen-1-one (hereunder, referred to as “compound 24”) synthesized in Preparation Example 24, once daily for four weeks continuously. The diabetic model which was not administered with “compound 24” was used as the control group, and rats administered with neither STZ nor “compound 24” were used as the non-treated group.
After four weeks from the start of administration, tracheae were isolated to prepare specimens (mucosal epithelium (+) specimens). The mucosal epithelia were further removed from these specimens to form mucosal epithelium (−) specimens. These specimens were suspended in an organ bath, and the contractile response to cumulative administration of carbachol (CAS Registry No.: 51-83-2) was observed. The muscle contractile force was measured with various cumulative concentrations of carbachol within the range of 10^−8.0 to 10^−4.5 M, to obtain the maximum muscle contractile force (Emax (g/mg tissue)) and the effective dose for inducing 50% muscle contraction (ED50 (M)).

[2] = test system: vascular smooth muscles from the STZ-induced diabetic rat model; test: U-46619-induced contraction of isolated thoracic aorta rings from STZ-induced diabetic rats after four weeks of dosing; assay type: in vivo, SD rats; design: effective dose for inducing 50% muscle contraction (ED50): unit not given here; conditions: for effective dose for inducing 50% muscle contraction (ED50): ED50 of U-46619
Method: Eight-week-old male SD rats were divided into four groups, three of which were intraperitoneally administered with 50 mg/kg of streptozotocin (hereafter, also referred to as STZ) to induce diabetes. Of this diabetic model, two groups were used as the test substance-administered groups, and were intraperitoneally administered with 2 mg/kg or 8 mg/kg of “compound 24” synthesized in Preparation Example […] once daily for four weeks continuously. The diabetic model which was not administered with “compound 24” was used as the control group, and rats which were administered with neither STZ nor “compound 24” were used as the non-treated group.
After four weeks from the start of administration, thoracic aorta were isolated to form ring specimens (endothelium (+) specimens) of about 2 mm in length. The vascular endothelia were further removed from these specimens to form endothelium (−) specimens. These specimens were suspended in an organ bath, and the contractile response to cumulative administration of 9,11-dideoxy-9α,11α-methanoepoxy-prosta-5Z,13E-dien-1-oic acid (CAS Registry No.: 56985-40-1, hereafter also referred to as U-46619), which is a thromboxane A2 derivative, was observed. The muscle contractile force was measured with various cumulative concentrations of U-46619 within the range of 10^−9.0 to 10^−6.5 M, to obtain the maximum muscle contractile force (Emax (g/mg tissue)) and the effective dose for inducing 50% muscle contraction (ED50 (M)).

[3] = test system: tracheal specimens contracted with carbachol; conditions: cited from earlier work; for relaxation of specimens contracted with carbachol: carbachol 10^−6 mol/l; for response of diabetic rat specimens compared with control animals: specimens six weeks after 65 mg/kg i.v. streptozotocin
[4] = test system: tracheal muscles isolated from streptozotocin-induced diabetic rats; conditions: cited from earlier work
rat isolated trachea = conditions: streptozotocin-induced diabetic rats and normal rats; cited from earlier work
[5] = mucosal epithelium (+) specimens, 2 mg/kg i.p. once daily for four weeks
[6] = mucosal epithelium (+) specimens, 8 mg/kg i.p. once daily for four weeks
[7] = mucosal epithelium (−) specimens, 2 mg/kg i.p. once daily for four weeks
[8] = mucosal epithelium (−) specimens, 8 mg/kg i.p. once daily for four weeks

## O=C1C=C(CCCCCCCCCCCCO)CCC1 [Preparation Example 3, 3-(12-hydroxydodecyl)-2-cyclohexen-1-one]
other
  melting point: 35 to 36 °C

## O=C1C=C(CCCCCCCCCCCCCO)CCC1 [Preparation Example 4, 3-(13-hydroxytridecyl)-2-cyclohexen-1-one]
other
  melting point: 42 to 43 °C

## CC1=C(CCCCCCCCCCCCCCCO)C(C)(C)CCC1=O [Compound 24, 3-(15-hydroxypentadecyl)-2,4,4-trimethyl-2-cyclohexen-1-one]
[1]; 2 and 8 mg/kg, vs. control group
  effect on ED50 decrease of carbachol-induced tracheal smooth muscle contraction: inhibited the ED50 decrease in a dose-dependent manner
[1]; [5]
  effective dose for inducing 50% muscle contraction (ED50): 12.2 ± 2.3 ×10^−8 M
  maximum muscle contractile force (Emax): 0.303 ± 0.047 g/mg tissue
[1]; [6]
  effective dose for inducing 50% muscle contraction (ED50): 17.2 ± 5.3 ×10^−8 M
  maximum muscle contractile force (Emax): 0.292 ± 0.029 g/mg tissue
[1]; [7]
  effective dose for inducing 50% muscle contraction (ED50): 11.4 ± 3.1 ×10^−8 M
  maximum muscle contractile force (Emax): 0.307 ± 0.036 g/mg tissue
[1]; [8]
  effective dose for inducing 50% muscle contraction (ED50): 13.3 ± 4.2 ×10^−8 M
  maximum muscle contractile force (Emax): 0.242 ± 0.019 g/mg tissue
[1]; STZ-induced diabetic rats
  overall effect on tracheal smooth muscle contraction: tracheal smooth muscle contraction-improving tendency
[1]; both mucosal epithelium (+) and (−) specimens, 2 and 8 mg/kg, vs. control group
  effect on Emax increase of carbachol-induced tracheal smooth muscle contraction: tended to suppress the Emax increase concentration-dependently
[2]; 2 mg/kg or 8 mg/kg, compared to the control group
  effect on Emax increase, endothelium (−) specimens: significant inhibition of the Emax increase
[2]; 8 mg/kg, compared to the control group
  effect on Emax increase, endothelium (+) specimens: significant inhibition of the Emax increase
[2]; endothelium (+) specimens, 2 mg/kg i.p. once daily for four weeks, mean±SD, n=6
  effective dose for inducing 50% muscle contraction (ED50): 8.077 ± 0.037 ×10^−9
[2]; endothelium (+) specimens, 8 mg/kg i.p. once daily for four weeks, mean±SD, n=6
  effective dose for inducing 50% muscle contraction (ED50): 8.102 ± 0.055 ×10^−9
[2]; endothelium (−) specimens, 2 mg/kg i.p. once daily for four weeks, mean±SD, n=6
  effective dose for inducing 50% muscle contraction (ED50): 8.149 ± 0.030 ×10^−9
[2]; endothelium (−) specimens, 8 mg/kg i.p. once daily for four weeks, mean±SD, n=6
  effective dose for inducing 50% muscle contraction (ED50): 8.194 ± 0.114 ×10^−9
[2]; STZ-induced diabetic rats
  overall effect on vascular smooth muscle contraction: vascular smooth muscle contraction-inhibiting effect
[2]; all groups
  effect on ED50 of U-46619: no difference in ED50 among the groups
[2]; both endothelium (+) and (−) specimens, 2 and 8 mg/kg, vs. control group
  effect on Emax increase of U-46619-induced vascular smooth muscle contraction: inhibited the Emax increase in a dose-dependent manner
[2]; endothelium (+) specimens, U-46619, 2 mg/kg i.p. once daily for four weeks, mean±SD, n=6
  maximum muscle contractile force (Emax): 0.576 ± 0.082 g/mg tissue

## Cn1c(=O)c2[nH]cnc2n(C)c1=O [theophylline]
[3]
  relaxation of specimens contracted with carbachol: concentration-dependent relaxation
  response of diabetic rat specimens compared with control animals: no significant difference

## O=C1C=C(CCCCCCCCCCCO)CCC1 [Preparation Example 2, 3-(11-hydroxyundecyl)-2-cyclohexen-1-one]
other
  melting point: 34 to 35 °C

## COc1ccc(C2CNC(=O)C2)cc1OC1CCCC1 (centres unmarked) [rolipram]
[3]
  relaxation of specimens contracted with carbachol: concentration-dependent relaxation
  response of diabetic rat specimens compared with control animals: no significant difference
[3]; control animal specimens
  concentration at which the effect was observed: observed at the lowest concentration

## COC(=O)[C@@H](N)CCCNC(=N)N[N+](=O)[O-] [L-NAME, NG-nitro-L-arginine-methylester]
[4]; normal rats and diabetic rats
  effect on electrical stimulation-induced contraction: enhanced the response in normal rats, but not in diabetic rats
[4]; tracheal muscles from streptozotocin-induced diabetic rats
  effect on acetylcholine-induced contraction: not affected

## Nc1cc(-c2ccncc2)c[nH]c1=O [aminone]
[3]
  relaxation of specimens contracted with carbachol: concentration-dependent relaxation
  response of diabetic rat specimens compared with control animals: higher response

## NCCCC(=O)O [GABA, γ-aminobutyric acid]
Rat isolated trachea
  effect on tracheal contraction induced by electrical stimulation: inhibited

## O=C1C=C(CCCCCCCCCCCCCCO)CCC1 [Preparation Example 5, 3-(14-hydroxytetradecyl)-2-cyclohexen-1-one]
other
  melting point: 44 to 45 °C
